The results in this text go back to patent US8691815B2, “Substituted oxindole derivatives, drugs containing said derivatives and the use thereof” (AbbVie Deutschland GmbH & Co. KG, priority 2005, dated 2014).

Broadly, the Ki is the dissociation constant of the complex between target and ligand, obtained from inhibition or displacement. A low value points to tighter binding.

Counter-ions that a name gives are not always drawn.

The target of this test is T1, human vasopressin V1b receptor (Homo sapiens, UniProt P47901).
T1 construct: expressed in transfected cells; host or cells: CHO-K1 (cell line hV1b-3H2_CHO), membrane preparation
T1 sequence (P47901 1-424): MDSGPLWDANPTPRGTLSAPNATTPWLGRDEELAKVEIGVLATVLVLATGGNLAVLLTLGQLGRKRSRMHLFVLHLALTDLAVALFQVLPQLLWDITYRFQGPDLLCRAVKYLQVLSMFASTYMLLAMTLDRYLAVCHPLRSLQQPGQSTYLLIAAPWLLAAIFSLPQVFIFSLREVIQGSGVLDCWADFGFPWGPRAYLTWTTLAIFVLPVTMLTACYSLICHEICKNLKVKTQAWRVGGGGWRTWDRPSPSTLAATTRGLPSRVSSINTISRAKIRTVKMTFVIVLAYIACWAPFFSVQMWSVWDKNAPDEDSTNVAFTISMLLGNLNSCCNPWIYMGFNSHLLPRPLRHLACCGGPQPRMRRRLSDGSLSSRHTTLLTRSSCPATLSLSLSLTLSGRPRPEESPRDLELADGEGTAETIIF
Kind of test: Vasopressin V1b receptor binding assay. The settings on record: membranes from CHO-K1 cells with stably expressed human V1b receptors, displacement of 1.5 nM 3H-AVP. The method, then: Vasopressin V1b Receptor Binding Assay:
The test substances were dissolved in a concentration of 10^−2 M in DMSO (dimethyl sulfoxide) and further diluted to 5×10^−4 M to 5×10^−9 M in DMSO. This series of DMSO predilutions was diluted 1:10 with assay buffer. The substance concentration was again diluted 1:5 in the assay mixture (2% DMSO in the mixture).
The membrane pellet was again homogenized and centrifuged as described and then taken up in 50 mM Tris-HCl, pH 7.4, homogenized and stored in aliquots frozen in liquid nitrogen at −190° C.
The incubation buffer was: 50 mM Tris, 10 mM MgCl2, 0.1% BSA, pH 7.4.
The nonspecific binding was determined with 1 uM AVP (Bachem # H1780). All determinations were carried out as triplicate determinations. After incubation (60 minutes at room temperature), the free radioligand was removed by vacuum filtration (Skatron cell harvester 7000) through Whatman GF/B glass fiber filter mats, and the filters were transferred into scintillation vials. The liquid scintillation measurement took place in a Tricarb model 2000 or 2200CA instrument (Packard). Conversion of the measured cpm into dpm was carried out with the aid of a standard quench series.
The binding parameters were calculated by nonlinear regression in SAS.
The molecule `COc1ccc(S(=O)(=O)N2C(=O)C(c3ccc(CN4CCCCC4)cc3OC)(N3CCC[C@H]3C(=O)N(C)C)c3cc(Cl)ccc32)c(OC)c1` (single isomer, unassigned) [Example 8] gave a Ki of 1 to 10 nM.

In the case of `COc1ccc(S(=O)(=O)N2C(=O)C(c3ccc(CN4CCOCC4)cc3OC)(N3CCC[C@H]3C(=O)N(C)C)c3cc(Cl)ccc32)c(OC)c1` (single isomer, unassigned) [Example 10], the Ki was in the range of 10 to 100 nM.

Regarding `COc1ccc(S(=O)(=O)N2C(=O)C(c3cccc(CN(C)C)c3)(N3C[C@H](O)C[C@H]3C(=O)N(C)C)c3cc(Cl)ccc32)c(OC)c1` (single isomer, unassigned) [Example 16], the Ki lay within 1 to 10 nM.

`COc1ccc(S(=O)(=O)N2C(=O)C(c3ccc(CN4CCCC4)cc3OC)(N3CCC[C@H]3C(=O)N(C)C)c3cc(Cl)ccc32)c(OC)c1` (stereo partly drawn) [Example 1, (S)-1-[5-Chloro-1-(2,4-dimethoxybenzenesulfonyl)-3-(2-methoxy-4-pyrrolidin-1-yl-methylphenyl)-2-oxo-2,3-dihydro-1H-indol-3-yl]-pyrrolidine-2-dimethylcarboxamide, trifluoroacetic acid salt]: the Ki was below 1 nM.

The molecule `COc1cc(CN2CCCC2)ccc1C1(N2CCC[C@H]2C(=O)N(C)C)C(=O)N(S(=O)(=O)c2ccc(F)cc2)c2ccc(Cl)cc21` (stereo partly drawn) [Example 3, (S)-1-[5-Chloro-1-(4-fluorobenzenesulfonyl)-3-(2-methoxy-4-pyrrolidin-1-ylmethyl-phenyl)-2-oxo-2,3-dihydro-1H-indol-3-yl]pyrrolidine-2-dimethylcarboxamide, trifluoroacetic acid salt] yielded an inhibitory constant (Ki) of 1 to 10 nM.

`COc1cc(CN2CCCC2)ccc1C1(N2CCC[C@H]2C(=O)N(C)C)C(=O)N(S(=O)(=O)c2ccc(Cl)cc2)c2ccc(Cl)cc21` (stereo partly drawn) [Example 4, (S)-1-[5-Chloro-1-(4-chlorobenzenesulfonyl)-3-(2-methoxy-4-pyrrolidin-1-ylmethyl-phenyl)-2-oxo-2,3-dihydro-1H-indol-3-yl]pyrrolidine-2-dimethylcarboxamide, trifluoroacetic acid salt]: the Ki is below 1 nM.

`COc1cc(CN2CCCC2)ccc1C1(N2CCC[C@H]2C(=O)N(C)C)C(=O)N(S(=O)(=O)c2ccc(C#N)cc2)c2ccc(Cl)cc21` (stereo partly drawn) [Example 5, (S)-1-[5-Chloro-1-(4-cyanobenzenesulfonyl)-3-(2-methoxy-4-pyrrolidin-1-ylmethyl-phenyl)-2-oxo-2,3-dihydro-1H-indol-3-yl]pyrrolidine-2-dimethylcarboxamide, trifluoroacetic acid salt]: the Ki was below 1 nM.

Molecule `COc1ccc(S(=O)(=O)N2C(=O)C(c3ccc(CN4CCCC4)cc3)(N3C[C@H](O)C[C@H]3C(=O)N(C)C)c3cc(Cl)ccc32)c(OC)c1` (stereo partly drawn) [Example 6, (2S,4R)-1-[5-Chloro-1-(2,4-dimethoxybenzenesulfonyl)-2-oxo-3-(4-pyrrolidin-1-yl-methylphenyl)-2,3-dihydro-1H-indol-3-yl]-4-hydroxypyrrolidine-2-dimethylcarboxamide] returned a Ki of 10 to 100 nM.

Molecule `COc1ccc(S(=O)(=O)N2C(=O)C(c3ccc(CN(C)C)cc3OC)(N3CCC[C@H]3C(=O)N(C)C)c3cc(Cl)ccc32)c(OC)c1` (stereo partly drawn) [Example 7, (S)-1-[5-Chloro-1-(2,4-dimethoxybenzenesulfonyl)-3-(4-dimethylaminomethyl-2-methoxyphenyl)-2-oxo-2,3-dihydro-1H-indol-3-yl]-pyrrolidin-2-dimethylcarboxamide] showed an inhibition constant Ki of 1 to 10 nM.

Molecule `COc1ccc(S(=O)(=O)N2C(=O)C(c3ccc(CN4CCN(C)CC4)cc3OC)(N3CCC[C@H]3C(=O)N(C)C)c3cc(Cl)ccc32)c(OC)c1` (stereo partly drawn) [Example 9, (S)-1-{5-Chloro-1-(2,4-dimethoxybenzenesulfonyl)-3-[2-methoxy-4-(4-methyl-piperazin-1-ylmethyl)phenyl]-2-oxo-2,3-dihydro-1H-indol-3-yl}pyrrolidine-2-dimethylcarboxamide] gave a Ki of 1 to 10 nM.

Molecule `COc1ccc(S(=O)(=O)N2C(=O)C(c3ccc(CN4CCN(C(C)=O)CC4)cc3OC)(N3CCC[C@H]3C(=O)N(C)C)c3cc(Cl)ccc32)c(OC)c1` (stereo partly drawn) [Example 11, (S)-1-[3-[4-(4-Acetylpiperazin-1-ylmethyl)-2-methoxyphenyl]-5-chloro-1-(2,4-dimethoxy-benzenesulfonyl)-2-oxo-2,3-dihydro-1H-indol-3-yl]pyrrolidine-2-dimethylcarboxamide] displayed a Ki of 10 to 100 nM.

`COc1ccc(S(=O)(=O)N2C(=O)C(c3ccc(CN(C)CCN(C)C)cc3OC)(N3CCC[C@H]3C(=O)N(C)C)c3cc(Cl)ccc32)c(OC)c1` (stereo partly drawn) [Example 12, (S)-1-[5-Chloro-1-(2,4-dimethoxybenzenesulfonyl)-3-(4-{[(2-dimethylaminoethyl)-methylamino]methyl}-2-methoxyphenyl)-2-oxo-2,3-dihydro-1H-indol-3-yl]pyrrolidine-2-dimethylcarboxamide] gave a Ki of 1 to 10 nM.

The molecule `COc1ccc(S(=O)(=O)N2C(=O)C(c3ccc(CN4CCCC4)cc3OC)(N(C)[C@@H](C)C(=O)N(C)C)c3cc(Cl)ccc32)c(OC)c1` (stereo partly drawn) [Example 14, (S)-2-{[5-Chloro-1-(2,4-dimethoxybenzenesulfonyl)-3-(2-methoxy-4-pyrrolidin-1-yl-methylphenyl)-2-oxo-2,3-dihydro-1H-indol-3-yl]methylamino}-N,N-dimethyl-propionamide] registered a Ki of 1 to 10 nM.

Consider `COc1ccc(S(=O)(=O)N2C(=O)C(c3cc(CN(C)C)ccc3OC)(N3CCC[C@H]3C(=O)N(C)C)c3cc(Cl)ccc32)cc1` (stereo partly drawn) [Example 17, (S)-1-[5-Chloro-3-(5-dimethylaminomethyl-2-methoxyphenyl)-1-(4-methoxy-benzene-sulfonyl)-2-oxo-2,3-dihydro-1H-indol-3-yl]pyrrolidine-2-dimethylcarboxamide, trifluoroacetic acid salt], for which the Ki is below 1 nM.

Turning to `COc1ccc(S(=O)(=O)N2C(=O)C(c3cc(CN4CCCC4)ccc3OC)(N3CCC[C@H]3C(=O)N(C)C)c3cc(Cl)ccc32)cc1` (stereo partly drawn) [Example 18, (S)-1-[5-Chloro-1-(4-methoxybenzenesulfonyl)-3-(2-methoxy-5-pyrrolidin-1-yl-methylphenyl)-2-oxo-2,3-dihydro-1H-indol-3-yl]pyrrolidine-2-dimethylcarboxamide, trifluoroacetic acid salt], the Ki is below 1 nM.

On to `COc1ccc(S(=O)(=O)N2C(=O)C(c3cc(CN4CCCCC4)ccc3OC)(N3CCC[C@H]3C(=O)N(C)C)c3cc(Cl)ccc32)cc1` (stereo partly drawn) [Example 19, (S)-1-[5-Chloro-1-(4-methoxybenzenesulfonyl)-3-(2-methoxy-5-piperidin-1-ylmethyl-phenyl)-2-oxo-2,3-dihydro-1H-indol-3-yl]pyrrolidine-2-dimethylcarboxamide, trifluoroacetic acid salt], for which the Ki is below 1 nM.

On to `COc1ccc(S(=O)(=O)N2C(=O)C(c3cc(CN4CCN(C)CC4)ccc3OC)(N3CCC[C@H]3C(=O)N(C)C)c3cc(Cl)ccc32)cc1` (stereo partly drawn) [Example 20, (S)-1-{5-Chloro-1-(4-methoxybenzenesulfonyl)-3-[2-methoxy-5-(4-methylpiperazin-1-yl-methyl)phenyl]-2-oxo-2,3-dihydro-1H-indol-3-yl}pyrrolidine-2-dimethylcarboxamide, trifluoroacetic acid salt], for which the Ki is below 1 nM.

`COc1ccc(S(=O)(=O)N2C(=O)C(c3cc(CN4CCOCC4)ccc3OC)(N3CCC[C@H]3C(=O)N(C)C)c3cc(Cl)ccc32)cc1` (stereo partly drawn) [Example 21, (S)-1-[5-Chloro-1-(4-methoxybenzenesulfonyl)-3-(2-methoxy-5-morpholin-4-yl-methylphenyl)-2-oxo-2,3-dihydro-1H-indol-3-yl]pyrrolidine-2-dimethylcarboxamide, trifluoroacetic acid salt] yielded a Ki below 1 nM.

The molecule `COc1ccc(S(=O)(=O)N2C(=O)C(c3cc(CN(C)CCN(C)C)ccc3OC)(N3CCC[C@H]3C(=O)N(C)C)c3cc(Cl)ccc32)cc1` (stereo partly drawn) [Example 22, (S)-1-[5-Chloro-3-(5-{[(2-dimethylaminoethyl)methylamino]methyl}-2-methoxy-phenyl)-1-(4-methoxybenzenesulfonyl)-2-oxo-2,3-dihydro-1H-indol-3-yl]pyrrolidine-2-dimethylcarboxamide, trifluoroacetic acid salt] yielded a Ki below 1 nM.

Turning to `COc1ccc(S(=O)(=O)N2C(=O)C(c3cc(CN(C)CCCN(C)C)ccc3OC)(N3CCC[C@H]3C(=O)N(C)C)c3cc(Cl)ccc32)cc1` (stereo partly drawn) [Example 23, (S)-1-[5-Chloro-3-(5-{[(3-dimethylaminopropyl)methylamino]methyl}-2-methoxy-phenyl)-1-(4-methoxybenzenesulfonyl)-2-oxo-2,3-dihydro-1H-indol-3-yl]pyrrolidine-2-dimethylcarboxamide, trifluoroacetic acid salt], the Ki was below 1 nM.
